Laboratory results from article PMC11995724, “Antibiotic target discovery by integrated phenotypic and activity-based profiling of electrophilic fragments” (Cell chemical biology, 2025).

Experiment: in vitro
Details: human, hek293t cells

Structure (SMILES) | viability at 48 h, 25 µM [%]
COCCNC(=O)C(C#N)=Cc1c(Cl)cccc1Cl [8-O13, 2-cyano-3-(2,6-dichlorophenyl)-N-(2-methoxyethyl)prop-2-enamide] | 55.9
COc1ccc(NC(=O)C(C#N)=Cc2cccs2)cc1 [8-O14, 2-cyano-N-(4-methoxyphenyl)-3-(thiophen-2-yl)prop-2-enamide] | 75.7
N#CC(=Cc1c(F)c(F)c(F)c(F)c1F)C(=O)NC1CCCCC1 [8-O15, 2-cyano-N-cyclohexyl-3-(2,3,4,5,6-pentafluorophenyl)prop-2-enamide] | 0.544
N#CC(=Cc1ccc(C#N)cc1)C(=O)Nc1cccc2ccccc12 [8-O16, 2-cyano-3-(4-cyanophenyl)-N-(naphthalen-1-yl)prop-2-enamide] | 38.3
COc1cccc(NC(=O)C(C#N)=Cc2ccc(O)cc2)c1 [8-O17, 2-cyano-3-(4-hydroxyphenyl)-N-(3-methoxyphenyl)prop-2-enamide] | 82.7
N#CC(=CC=Cc1ccccc1)C(=O)Nc1ccc(F)c(Cl)c1 [8-O18, N-(3-chloro-4-fluorophenyl)-2-cyano-5-phenylpenta-2,4-dienamide] | 76.2
N#CC(=Cc1cccc2ccccc12)C(=O)NCc1ccccc1 [8-O19, N-benzyl-2-cyano-3-(naphthalen-1-yl)prop-2-enamide] | 48
Cc1cccc(C)c1NC(=O)C(C#N)=Cc1c(C)n[nH]c1C [8-O20, 2-cyano-3-(3,5-dimethyl-1H-pyrazol-4-yl)-N-(2,6-dimethylphenyl)prop-2-enamide] | 51.4
COCCNC(=O)C(C#N)=Cc1c(F)cccc1Cl [8-O21, 3-(2-chloro-6-fluorophenyl)-2-cyano-N-(2-methoxyethyl)prop-2-enamide] | 94.2
CCc1ccc(-c2nn(-c3ccccc3)cc2C=C(C#N)C(N)=O)cc1 [8-O22, 2-cyano-3-[3-(4-ethylphenyl)-1-phenyl-1H-pyrazol-4-yl]prop-2-enamide] | 70.6
COc1cccc(NC(=O)C(C#N)=Cc2cccc(O)c2)c1 [8-P03, 2-cyano-3-(3-hydroxyphenyl)-N-(3-methoxyphenyl)prop-2-enamide] | 120
N#CC(=Cc1cccc(Cl)c1Cl)C(=O)NCc1ccco1 [8-P04, 2-cyano-3-(2,3-dichlorophenyl)-N-[(furan-2-yl)methyl]prop-2-enamide] | 52.4
COc1cc(C=C(C#N)C(=O)Nc2ccc(C)cc2)cc(Cl)c1O [8-P05, 3-(3-chloro-4-hydroxy-5-methoxyphenyl)-2-cyano-N-(4-methylphenyl)prop-2-enamide] | 95.6
CC(C)NC(=O)C(C#N)=Cc1cccc2ccccc12 [8-P06, 2-cyano-3-(naphthalen-1-yl)-N-(propan-2-yl)prop-2-enamide] | 103
COc1ccc(C=C(C#N)C(=O)Nc2ccccc2C)cc1 [8-P07, 2-cyano-3-(4-methoxyphenyl)-N-(2-methylphenyl)prop-2-enamide] | 114
COc1cc(C=C(C#N)C(N)=O)ccc1OC(F)F [8-P08, 2-cyano-3-[4-(difluoromethoxy)-3-methoxyphenyl]prop-2-enamide] | 82.2
N#CC(=Cc1c(Cl)cccc1Cl)C(=O)Nc1nccs1 [8-P09, 2-cyano-3-(2,6-dichlorophenyl)-N-(1,3-thiazol-2-yl)prop-2-enamide] | 109
N#CC(=Cc1ccccc1)C(=O)NCc1ccc(F)cc1 [8-P10, 2-cyano-N-[(4-fluorophenyl)methyl]-3-phenylprop-2-enamide] | 89
CCc1cccc(CC)c1NC(=O)C(C#N)=Cc1ccc(C)o1 [8-P11, 2-cyano-N-(2,6-diethylphenyl)-3-(5-methylfuran-2-yl)prop-2-enamide] | 108
COc1ccc2ccccc2c1C=C(C#N)C(=O)N1CCCC1 [8-P12, 3-(2-methoxynaphthalen-1-yl)-2-(pyrrolidine-1-carbonyl)prop-2-enenitrile] | 75.4
Cc1ccc(C=C(C#N)C(=O)Nc2nccs2)s1 [8-P13, 2-cyano-3-(5-methylthiophen-2-yl)-N-(1,3-thiazol-2-yl)prop-2-enamide] | 109
N#CC(=Cc1cccc(O)c1)C(=O)NCc1ccc(Cl)cc1 [8-P14, N-[(4-chlorophenyl)methyl]-2-cyano-3-(3-hydroxyphenyl)prop-2-enamide] | 64.4
COc1ccc(C=C(C#N)C(=O)Nc2ccccc2C)cc1O [8-P15, 2-cyano-3-(3-hydroxy-4-methoxyphenyl)-N-(2-methylphenyl)prop-2-enamide] | 120
CC(NC(=O)C(C#N)=Cc1ccccc1F)c1ccccc1 (stereo not drawn) [8-P16, 2-cyano-3-(2-fluorophenyl)-N-(1-phenylethyl)prop-2-enamide] | 61.8
CCCCNC(=O)C(C#N)=Cc1ccncc1 [8-P17, N-butyl-2-cyano-3-(pyridin-4-yl)prop-2-enamide] | 115
COc1ccc2ccccc2c1C=C(C#N)C(=O)NC1CCCCC1 [8-P18, 2-cyano-N-cyclohexyl-3-(2-methoxynaphthalen-1-yl)prop-2-enamide] | 66.4

Structure (SMILES) | viability at 48 h, 25 µM [%]
Cc1ccc(C=C(C#N)C(=O)NCc2ccco2)o1 [8-P19, 2-cyano-N-[(furan-2-yl)methyl]-3-(5-methylfuran-2-yl)prop-2-enamide] | 95.3
N#CC(=CC=Cc1ccccc1[N+](=O)[O-])C(=O)Nc1ccccc1 [8-P20, 2-cyano-5-(2-nitrophenyl)-N-phenylpenta-2,4-dienamide] | 48
Cc1cc(C)c(C=C(C#N)C(=O)Nc2nccs2)cc1C [8-P21, 2-cyano-N-(1,3-thiazol-2-yl)-3-(2,4,5-trimethylphenyl)prop-2-enamide] | 113
N#CC(=Cc1cccc(Cl)c1Cl)C(=O)Nc1ccc(F)cc1 [8-P22, 2-cyano-3-(2,3-dichlorophenyl)-N-(4-fluorophenyl)prop-2-enamide] | 92.8
N#CC(=Cc1cccc(F)c1F)C(N)=O [9-A03, 2-cyano-3-(2,3-difluorophenyl)prop-2-enamide] | 115
N#CC(=Cc1ccc(OC(F)F)cc1)C(=O)NC1CCCCC1 [9-A04, 2-cyano-N-cyclohexyl-3-[4-(difluoromethoxy)phenyl]prop-2-enamide] | 66.2
CC(O)=C(C#N)C(=O)Nc1ccc(C(F)(F)F)cc1 [9-A05, 2-cyano-3-hydroxy-N-[4-(trifluoromethyl)phenyl]but-2-enamide] | 90.6
CCOc1ccccc1NC(=O)C(C#N)=Cc1c(C)[nH]c2ccccc12 [9-A06, 2-cyano-N-(2-ethoxyphenyl)-3-(2-methyl-1H-indol-3-yl)prop-2-enamide] | 100
Cc1cc(C=C(C#N)C(=O)Nc2ccccc2)c(C)n1CC(C)C [9-A07, 2-cyano-3-[2,5-dimethyl-1-(2-methylpropyl)-1H-pyrrol-3-yl]-N-phenylprop-2-enamide] | 115
N#CC(=Cc1ccc(-c2ccccc2F)o1)C(=O)Nc1nccs1 [9-A08, 2-cyano-3-[5-(2-fluorophenyl)furan-2-yl]-N-(1,3-thiazol-2-yl)prop-2-enamide] | 110
CC(C)NC(=O)C(C#N)=Cc1ccccc1Cl [9-A09, 3-(2-chlorophenyl)-2-cyano-N-(propan-2-yl)prop-2-enamide] | 95.9
COc1ccccc1NC(=O)C(C#N)=Cc1cc(C)c(C)cc1C [9-A10, 2-cyano-N-(2-methoxyphenyl)-3-(2,4,5-trimethylphenyl)prop-2-enamide] | 115
CC(C)NC(=O)C(C#N)=Cc1c(Cl)nc2ccccn12 [9-A11, 3-{2-chloroimidazo[1,2-a]pyridin-3-yl}-2-cyano-N-(propan-2-yl)prop-2-enamide] | 112
CC(=O)N(c1ccccc1)c1nc(C=C(C#N)C(=O)NC2CC2)cs1 [9-A12, 2-cyano-N-cyclopropyl-3-[2-(N-phenylacetamido)-1,3-thiazol-4-yl]prop-2-enamide] | 123
CC(C)NC(=O)C(C#N)=Cc1cccc(Cl)c1 [9-A13, 3-(3-chlorophenyl)-2-cyano-N-(propan-2-yl)prop-2-enamide] | 99.7
CN(C)c1ccc(C=C(C#N)C(=O)N2CCC2)cc1 [9-A14, 2-(azetidine-1-carbonyl)-3-[4-(dimethylamino)phenyl]prop-2-enenitrile] | 106
N#CC(=Cc1ccc2c(c1)OCO2)C(=O)NCc1ccco1 [9-A15, 3-(1,3-dioxaindan-5-yl)-2-cyano-N-[(furan-2-yl)methyl]prop-2-enamide] | 119
N#CC(=Cc1cnn(CCCl)c1)C(=O)NC1CCCCC1 [9-A16, 3-[1-(2-chloroethyl)-1H-pyrazol-4-yl]-2-cyano-N-cyclohexylprop-2-enamide] | 109
COc1cccc2cc(C=C(C#N)C(=O)Nc3ccc(C)cc3)oc12 [9-A17, 2-cyano-3-(7-methoxy-1-benzofuran-2-yl)-N-(4-methylphenyl)prop-2-enamide] | 89
COc1ccc(C=C(C#N)C(=O)Nc2ccccc2C(=O)O)cc1O [9-A18, 2-[2-cyano-3-(3-hydroxy-4-methoxyphenyl)prop-2-enamido]benzoic acid] | 104
COc1ccc(C=C(C#N)C(=O)Nc2ccc(C)cc2)cc1 [9-A19, 2-cyano-3-(4-methoxyphenyl)-N-(4-methylphenyl)prop-2-enamide] | 103
N#CC(=Cc1cccc(O)c1)C(=O)Nc1ccccc1C(F)(F)F [9-A20, 2-cyano-3-(3-hydroxyphenyl)-N-[2-(trifluoromethyl)phenyl]prop-2-enamide] | 109
N#CC(C(=O)N1CCCCC1)=C1N=C(N)c2ccccc21 [9-A21, 2-(3-amino-1H-isoindol-1-ylidene)-3-oxo-3-(piperidin-1-yl)propanenitrile] | 102
N#CC(=Cc1ccc(C#N)cc1)C(=O)Nc1ccc(F)c(Cl)c1 [9-A22, N-(3-chloro-4-fluorophenyl)-2-cyano-3-(4-cyanophenyl)prop-2-enamide] | 102
N#CC(=Cc1ccc(N2CCOCC2)cc1)C(=O)Nc1ccccc1F [9-B03, 2-cyano-N-(2-fluorophenyl)-3-[4-(morpholin-4-yl)phenyl]prop-2-enamide] | 89.3
